{"source": "patent US10556929B2", "about": "“Cytotoxic T lymphocyte inducing immunogens for prevention treatment and diagnosis of dengue virus infection” (Emergex Vaccines Holdings Limited, priority 2011, dated 2020)", "format_in_all_cases": "cell-based, human", "key": {"[1]": {"system": "T2 cells loaded with the corresponding synthetic peptide", "experiment": "IFN-γ ELISpot, CTL vs peptide-pulsed T2 cells", "details": "CTL from HLA-A2+ healthy donor PBMC generated with synthetic peptide, overnight ELISpot, FIG. 3A-D", "description": "(§1) Heparinized blood from healthy HLA-A2+ donors was purchased from Research Blood Components, LLC (Brighton, Mass.). Peripheral blood mononuclear cells (PBMC) were purified using differential centrifugation following standard methods. PBMC were used to generate peptide specific CTL as described previously (James S. Testa, et al. J Infect Dis 205(4): 647-655. (2012)).\n(§2) Antigen stimulated interferon-γ (IFN-γ) release as a measure of CTL activation was assayed using an ELISPOT assay kit (BD-Pharmingen, San Jose, Calif.) according to the manufacturer's instructions. Results are presented as the number of interferon-γ producing cells per 1E6 PBMCs. Each assay was performed with PBMC from at least three different healthy HLA-A2+ donors. Error bars represent SEM of experimental replicates.\nIn order to characterize the functionality of the identified DV epitopes, we generated cytotoxic T cells from HLA-A2+ healthy donors using synthetic peptides corresponding to the identified epitopes. The cultures were tested in overnight ELISpot assays to measure IFNγ release from activated CTLs. […] Next, to confirm CTL activation against DV-infected targets, JY and HepG2 cells were infected with both DV2 and DV3 virus and used as targets in CTL ELISpot assays. […] In addition, K562 cells, a known NK cell target, were used as targets to measure non-specific IFNγ secretion."}, "[2]": {"system": "HepG2 cells infected with DV1-4 Thai isolates", "experiment": "IFN-γ ELISpot, CTL vs HepG2 cells infected with DV1-4 Thai isolates", "details": "HepG2 infected with DV1-4 Thai isolates, FIG. 4C-F", "description": "(§3) Dengue virus serotype 2 (DV2) (strain-16681), as well as DV type 3 (DV3) (strain-16562), were propagated in Vero cells and collected at 4 days post infection (dpi). Titer was determined using a plaque assay in Vero cells. Thai isolates of all four DV serotypes were propagated. All infections were carried out at five MOI for lhr, after which, virus was removed and cells were incubated for additional 48-72 hrs.\nas §1, §2\n(§4) We tested CTLs generated against the 4 epitopes using targets infected with all four DV serotypes. We infected HepG2 cells (FIG. 4A) or JY cells (FIG. 4B) with DV1-4 Thai isolates and verified protein expression. […] In addition to HepG2 cells, we also tested professional APC JY cells, as targets."}, "[3]": {"system": "JY cells infected with DV1-4 Thai isolates", "experiment": "IFN-γ ELISpot, CTL vs JY cells infected with DV1-4 Thai isolates", "details": "JY infected with DV1-4 Thai isolates, FIG. 4G-J", "description": "as §3, §1, §2, §4"}, "[4]": {"system": "JY and HepG2 cells infected with DV2 and DV3 virus", "experiment": "IFN-γ ELISpot, CTL vs DV2/DV3-infected JY and HepG2 cells", "details": "FIG. 3E-F", "description": "as §3, §1, §2\nIn order to characterize the functionality of the identified DV epitopes, we generated cytotoxic T cells from HLA-A2+ healthy donors using synthetic peptides corresponding to the identified epitopes. […]"}}, "data": [{"sequence": "NIQTAINQV (listed as Homo sapiens) [P4-NIQ]", "values": [{"measurement": "recognition of peptide-loaded targets by peptide-specific CTL (IFNγ release)", "setting": "[1]", "value": "recognize T2 cells loaded with the corresponding synthetic peptide"}, {"measurement": "activation of epitope-specific CTL against infected HepG2 targets", "setting": "[2]", "value": "activated against all four serotypes, although not to the same degree"}, {"measurement": "activation of peptide-specific CTL by infected JY targets", "setting": "[3]", "value": "most infected targets activate peptide-specific CTL"}]}, {"sequence": "KLAEAIFKL (listed as Homo sapiens) [P1-KLA]", "values": [{"measurement": "recognition of peptide-loaded targets by peptide-specific CTL (IFNγ release)", "setting": "[1]", "value": "recognize T2 cells loaded with the corresponding synthetic peptide"}, {"measurement": "activation of epitope-specific CTL against infected HepG2 targets", "setting": "[2]", "value": "activated against all four serotypes, although not to the same degree"}, {"measurement": "DV serotypes of infected targets recognized by peptide-specific CTL", "setting": "[3]", "value": "recognized only DV2-infected targets"}, {"measurement": "activation of peptide-specific CTL by infected JY targets", "setting": "[3]", "value": "most infected targets activate peptide-specific CTL"}]}, {"sequence": "TITEEIAVQ (listed as Homo sapiens) [P3-TIT]", "values": [{"measurement": "recognition of peptide-loaded targets by peptide-specific CTL (IFNγ release)", "setting": "[1]", "value": "recognize T2 cells loaded with the corresponding synthetic peptide"}, {"measurement": "CTL activation (IFNγ secretion) against DV-infected targets", "setting": "[4]", "value": "all DV-infected cells activated CTL to secrete IFNγ"}, {"measurement": "activation of epitope-specific CTL against infected HepG2 targets", "setting": "[2]", "value": "activated against all four serotypes, although not to the same degree"}, {"measurement": "activation of peptide-specific CTL by infected JY targets", "setting": "[3]", "value": "most infected targets activate peptide-specific CTL"}]}, {"sequence": "VTLLCLIPTV (listed as Homo sapiens) [P2-VTL]", "values": [{"measurement": "recognition of peptide-loaded targets by peptide-specific CTL (IFNγ release)", "setting": "[1]", "value": "recognize T2 cells loaded with the corresponding synthetic peptide"}, {"measurement": "CTL activation (IFNγ secretion) against DV-infected targets", "setting": "[4]", "value": "all DV-infected cells activated CTL to secrete IFNγ"}, {"measurement": "activation of epitope-specific CTL against infected HepG2 targets", "setting": "[2]", "value": "activated against all four serotypes, although not to the same degree"}, {"measurement": "DV serotypes of infected targets recognized by peptide-specific CTL", "setting": "[3]", "value": "recognized only DV2-infected targets"}, {"measurement": "activation of peptide-specific CTL by infected JY targets", "setting": "[3]", "value": "most infected targets activate peptide-specific CTL"}]}]}
